In patent publication US20140341922A1, “Method for Overcoming Tolerance to Targeted Anti-Cancer Agent” (SUN R&DB Foundation, priority 2011, published 2014):
Entries after “also recorded” stand apart in the source; their conditions may differ.

How the values were obtained:
IGF-1R = target: T1, IGF-1R (Homo sapiens, UniProt P08069); experiment: IGF-1-induced IGF-1R phosphorylation, Western blot; assay type: cell-based; details: LN686 cells, cixutumumab 6 h, then 100 ng/ml IGF-1 for 30 min
T1 construct: endogenous in cells; host or cells: LN686 cells
T1 sequence (P08069 31-1367): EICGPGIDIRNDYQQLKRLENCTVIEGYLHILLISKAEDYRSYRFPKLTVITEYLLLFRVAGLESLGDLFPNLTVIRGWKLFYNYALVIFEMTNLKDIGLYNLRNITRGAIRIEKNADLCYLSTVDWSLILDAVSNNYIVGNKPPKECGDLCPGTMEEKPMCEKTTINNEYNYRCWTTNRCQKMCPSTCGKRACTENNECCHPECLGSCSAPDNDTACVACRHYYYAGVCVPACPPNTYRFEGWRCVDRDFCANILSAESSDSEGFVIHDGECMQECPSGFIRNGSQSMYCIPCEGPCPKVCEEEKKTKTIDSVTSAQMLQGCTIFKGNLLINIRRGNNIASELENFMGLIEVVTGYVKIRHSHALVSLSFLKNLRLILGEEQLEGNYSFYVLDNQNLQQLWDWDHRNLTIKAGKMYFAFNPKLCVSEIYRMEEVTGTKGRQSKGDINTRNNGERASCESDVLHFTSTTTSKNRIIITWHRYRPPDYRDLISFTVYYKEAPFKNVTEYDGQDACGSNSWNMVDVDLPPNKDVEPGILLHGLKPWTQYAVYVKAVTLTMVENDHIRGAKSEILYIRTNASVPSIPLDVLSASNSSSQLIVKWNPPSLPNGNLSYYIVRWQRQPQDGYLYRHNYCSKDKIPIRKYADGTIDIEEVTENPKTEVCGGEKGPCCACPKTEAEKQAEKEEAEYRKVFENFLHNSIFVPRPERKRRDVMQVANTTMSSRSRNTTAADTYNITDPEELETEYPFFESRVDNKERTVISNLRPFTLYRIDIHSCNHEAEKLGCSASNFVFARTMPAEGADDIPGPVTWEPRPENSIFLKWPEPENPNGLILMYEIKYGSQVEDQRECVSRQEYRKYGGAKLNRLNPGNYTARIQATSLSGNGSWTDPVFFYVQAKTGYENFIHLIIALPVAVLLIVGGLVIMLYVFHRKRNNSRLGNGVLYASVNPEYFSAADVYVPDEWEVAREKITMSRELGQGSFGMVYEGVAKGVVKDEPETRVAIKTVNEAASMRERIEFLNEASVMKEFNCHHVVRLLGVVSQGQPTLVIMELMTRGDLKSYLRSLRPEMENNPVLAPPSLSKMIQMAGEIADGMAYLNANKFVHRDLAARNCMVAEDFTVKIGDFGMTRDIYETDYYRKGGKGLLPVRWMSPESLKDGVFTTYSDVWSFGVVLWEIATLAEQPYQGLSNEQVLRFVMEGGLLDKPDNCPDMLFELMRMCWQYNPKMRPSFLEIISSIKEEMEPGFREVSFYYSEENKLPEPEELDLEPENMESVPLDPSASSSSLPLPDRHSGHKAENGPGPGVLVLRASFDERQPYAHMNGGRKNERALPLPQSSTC
Procedure: Preparation of total cell lysates, Western blot analysis, and immunoprecipitation were performed according to methods described in our previous report (Morgillo et al., 2006).
LN686 cells were treated with increasing concentrations of cixutumumab for 6 h, and then stimulated with 100 ng/ml IGF-1 for 30 min.

[1] = system: 13 HNSCC and 6 NSCLC cells; experiment: MTS viability assay in PCPs and UAPs; assay type: cell-based, human; details: PCPs, 25 μg/ml, 7 days
Procedure: Cells were cultured in 96-well poly(poly-2-hydroxyethyl methacrylate [HEMA])-coated plates (PCPs) or ultra-low attached plates (UAPs). Control IgG1 (25 μg/ml), cixutumumab (25 μg/ml), PP2 (10 μM), and an integrin β3 neutralizing antibody B3A (10 μg/ml) were diluted in culture media containing 10% FBS or IGF-1 and treated alone or in combination. To examine the effect on cancer cell proliferation, a 3-(4,5-dimethylthiazol-2-yl)-2,5-diphenyltetrazolium bromide (MTT) or 3-(4,5-dimethylthiazol-2-yl)-5-(3-carboxymethoxyphenyl)-2-(4-sulfophenyl)-2H-tetrazolium (MTS) assay was performed, and to evaluate the effect on anchorage-independent colony formation, a soft agar colony formation assay was performed according to a method in our previous report (Morgillo et al., 2006).
The PCPs were prepared according to a previously reported method (Fukazawa et al., 1995). In brief, tissue culture plates were collated twice with poly-(HEMA) (10 mg/ml in 95% ethanol) at 37° C. and then washed with phosphate-buffered saline (PBS) several times.
HNSCC and NSCLC cells grown in PCPs and UAPs were treated with cixutumumab (25 μg/ml) for 7 days. Each bar represents mean±SD of 6 wells of a single representative experiment.

HNSCC and NSCLC cells = experiment: Soft agar colony formation assay; assay type: cell-based, human
Procedure: To evaluate the effect on anchorage-independent colony formation, cells were suspended in 0.4% agar in media at a density of 2×10^3 cells per well, replated in 12-well plates that have been pre-coated with 0.8% agar, and cultured in growth medium containing cixutumumab (25 μg/ml) for 2-6 weeks. Cells were stained with 0.1% Coomassie brilliant blue in PBS, and the colonies >0.2 mm in diameter were counted. Independent experiments were repeated three times.
Because cells grown in the 3D environment might differ from cells growing in PCPs and UAPs, the present inventor evaluated the effects of cixutumumab on cell growth in soft agar, a 3D culture system. 10 HNSCC and 6 NSCLC cells were cultured in soft agar for 4 to 6 weeks in the presence or absence of cixutumumab (25 μg/ml).

integrin β3 = experiment: Immunoprecipitation of integrin β3 / β1 with Src, FAK, p85; assay type: cell-based, human
Procedure: Total cell lysates were immunoprecipitated with antibodies against integrin β3, integrin β1, or IgG. The precipitates with protein A agarose were resolved by sodium dodecyl sulfate-polyacrylamide gel electrophoresis (SDS-PAGE) and transferred to a polyvinylidene difluoride (PVDF) membrane. Western blot analysis was performed using specific Abs described as follows, and antigen-antibody complexes were visualized using enhanced chemiluminescence plus kits (Amersham Biosciences, Piscataway, N.J.).
The LN686 cells grown in PCP were treated with cixutumumab (25 μg/ml) for indicated times prior to stimulation with 10% FBS (FIGS. 14 and 15) or IGF-1 (100 ng/ml) (FIGS. 16 and 17) in the presence or absence of anti-human IGF-1 neutralizing monoclonal antibody (αIGF-1) (FIGS. 15 and 16) for indicated times (FIG. 16) or for 30 min (FIGS. 14, 15, and 17). Immunoprecipitation with whole proteins or integrin β3 antibodies was performed on the presented proteins, and expression of the proteins was analyzed by western blot analysis.

[2] = system: Src and FAK phosphorylation; experiment: Fluorescent immunostaining of pSrc and pFAK; assay type: cell-based, human
Excerpt: The present inventors reconfirmed the western blot analysis results in which Src and FAK phosphorylation was increased due to cixutumumab in the presence of IGF-1 by fluorescent immunostaining. Cultured LN686 cells in UAPs with cixutumumab alone or in combination with IGF-1 or an integrin β3 neutralizing antibody, treated with IGF-1 to fix, and then Src and FAK phosphorylation was confirmed. […] Such an action of the cixutumumab was abolished by the IGF-1 or integrin β3 neutralizing antibody, and therefore it was reconfirmed that the action of cixutumumab for inducing the Src and FAK phosphorylation was mediated by integrin β3 in the presence of IGF-1.
According to the Previous study, a modified integrin β3 expression vector was prepared by substituting an amino acid sequence (CYDMKTTC, residues 177-184) of the integrin β3 essential for the IGF-1 bond with an amino acid sequence (CTSEQNC, residues 187-193) of integrin β1 at a corresponding position. An empty vector or a modified integrin β3 expression vector was transfected into FADU cells. These cells were plated, and cultured along with cixutumumab (25 μg/ml) alone or in combination with IGF-1 or an integrin β3 neutralizing antibody for 4 h. After the culture, IGF-1 […] was treated for 1 hour, and the cells were recovered, washed with PBS, and fixed with 10% formalin for 2 h. […]

Substance: cixutumumab: humanized mAb targeting IGF-1R, provided by ImClone Systems
- IGF-1-induced IGF-1R phosphorylation (IGF-1R): markedly inhibited; also recorded: concentration-dependent inhibitory effect
- inhibition in viability ([1]; 7 HNSCC and 2 NSCLC cell lines (red, resistant)): less than 20%
- inhibition in viability ([1]; remaining 2 HNSCC and 2 NSCLC cell lines (black, sensitive)): more than 60%
- colony formation in soft agar (HNSCC and NSCLC cells; OSC19 and A549 cells, 3D system): concentration-dependent inhibitory effects
- colonies formed in soft agar (HNSCC and NSCLC cells; sensitive NSCLC and HNSCC lines vs resistant and mildly sensitive lines, 25 μg/ml, 4 to 6 weeks): significantly fewer colonies
- FBS-induced associations between integrin β3 and Src or p85 and phosphorylation of FAK and Src (integrin β3; LN686 in PCP, 25 μg/ml, time-dependent): enhanced
- associations between integrin β1 and p-Src (Y416) or p-FAK (Y861) (integrin β3; after IGF-1 stimulation, cixutumumab pretreatment): did not affect
- IGF-1-induced Src and FAK phosphorylation in cell membrane ([2]; LN686 cells adhered to ECM-coated coverslip): did not suppress or somewhat increased
- Src and FAK phosphorylation (immunostaining) ([2]; LN686 cells in UAPs, in the presence of IGF-1): enhanced phosphorylation
